Format in all cases: biochemical
The target of experiment [1] is T1, paraoxon (POX)-inhibited human recombinant AChE (HssAChE) (Homo sapiens, UniProt P22303).
T1 construct: purchased Sigma-Aldrich
The conditions noted are these: for POX-HssAChE Reactivation (% ± SD): pH 7.4.

For experiment [2], the target named is T2, diisopropylfluorophosphate (DFP)-inhibited human recombinant AChE (HssAChE) (Homo sapiens, UniProt P22303).
T2 construct: purchased Sigma-Aldrich
As to conditions: pH 7.4.

Experiment [3] concerns the target T3, methylparaoxon (MePOX)-inhibited human recombinant AChE (HssAChE) (Homo sapiens, UniProt P22303).
T3 construct: purchased Sigma-Aldrich
As to conditions: for MePOX-HssAChE Reactivation (% ± SD): pH 7.4.

SMILES strings stand for the structures. Where “and” joins values, the source holds several entries; their conditions need not be identical. Identical values can stand only once.

T1 sequence (P22303 32-614): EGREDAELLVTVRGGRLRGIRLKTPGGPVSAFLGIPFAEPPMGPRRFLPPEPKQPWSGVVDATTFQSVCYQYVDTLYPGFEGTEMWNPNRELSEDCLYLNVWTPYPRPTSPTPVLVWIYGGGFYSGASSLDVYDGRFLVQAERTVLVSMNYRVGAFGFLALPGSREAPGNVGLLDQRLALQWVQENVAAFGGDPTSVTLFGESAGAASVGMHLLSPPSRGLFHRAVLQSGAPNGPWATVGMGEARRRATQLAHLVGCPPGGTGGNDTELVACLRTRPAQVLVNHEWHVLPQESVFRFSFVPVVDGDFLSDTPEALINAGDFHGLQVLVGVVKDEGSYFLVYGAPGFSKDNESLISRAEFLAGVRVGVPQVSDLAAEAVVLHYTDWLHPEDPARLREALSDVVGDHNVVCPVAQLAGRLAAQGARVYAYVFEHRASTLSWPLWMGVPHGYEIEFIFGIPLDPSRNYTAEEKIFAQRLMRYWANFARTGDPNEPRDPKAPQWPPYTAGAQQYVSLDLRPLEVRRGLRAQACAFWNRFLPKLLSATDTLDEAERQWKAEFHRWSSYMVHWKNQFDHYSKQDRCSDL
T3 sequence (P22303 32-614): as above
T2 sequence (P22303 32-614): as above

`C[n+]1ccccc1/C=N/O` [Compound 1, pralidoxime, reference compound]: in experiment [1], the “POX reactivation, maximum over both concentrations” value is listed as “up to 11%”; the “POX-HssAChE Reactivation (% ± SD)” value is 10.7 ± 0.3% and 2.1 ± 0.1%. Besides, the “DFP-HssAChE Reactivation (% ± SD)” value in experiment [2] was 1.3 ± 0.6% and 0.1 ± 0.4%. For the same molecule, in experiment [3], the “MePOX reactivation, maximum over both concentrations” value is “up to 30%”; the “MePOX-HssAChE Reactivation (% ± SD)” value is 30.2 ± 0.3% and 22.4 ± 0.7%.
With `NC(=O)c1cc[n+](C/C=C/C[n+]2ccc(/C=N/O)cc2)cc1` [Compound 9, (E)-1-(4-Carbamoylpyridinium)-4-(4-hydroxyiminomethylpyridinium)-but-2-ene Dibromide, reference compound], the “DFP-HssAChE Reactivation (% ± SD)” value in experiment [2] was 4.4 ± 0.1% and 2.1 ± 0.4%. For the same molecule, in experiment [3], the “MePOX-HssAChE Reactivation (% ± SD)” value is 55.9 ± 0.5% and 41.1 ± 0.1%.
For `ON=Cc1cc[n+](CCCC[n+]2ccccn2)cc1` [Compound 11, 4-Hydroxyiminomethyl-1,1′-(but-1,4-diyl)-1-pyridinium-1′-pyridazinium dibromide], the “POX-HssAChE Reactivation (% ± SD)” value in experiment [1] is 6.3 ± 0.8% and 3.0 ± 0.3%. Also, the “DFP-HssAChE Reactivation (% ± SD)” value in experiment [2] is 1.2 ± 0.7% and 1.0 ± 0.4%. In addition, the “MePOX-HssAChE Reactivation (% ± SD)” value in experiment [3] is 7.1 ± 0.7% and 11.8 ± 0.4%.
Regarding `NC(=NO)c1cc[n+](CCCC[n+]2ccc(C=NO)cc2)cc1.[Br-].[Br-]` [Compound 23, 4-(1-Amino-1-hydroxyiminomethyl)-4′-hydroxyiminomethyl-1,1′-(but-1,4-diyl)-bispyridinium dibromide], the “DFP-HssAChE Reactivation (% ± SD)” value in experiment [2] was 3.1 ± 0.8% and 2.0 ± 0.2%. Also, the “MePOX-HssAChE Reactivation (% ± SD)” value in experiment [3] was 21% and 20.2 ± 1.0% and 20.7 ± 0.4%.
`N#Cc1cc[n+](CCCC[n+]2ccc(C=NO)cc2)cc1` [Compound 22, 4-Carbonitril-4′-hydroxyiminomethyl-1,1′-(but-1,4-diyl)-bispyridinium dibromide]: the “DFP-HssAChE Reactivation (% ± SD)” value in experiment [2] is 1.7 ± 0.5% and 0.4 ± 0.2%. In experiment [3], the “MePOX-HssAChE Reactivation (% ± SD)” value is 11.1 ± 0.1% and 13.8 ± 0.3%.
Turning to `ON=Cc1cc[n+](CCCC[n+]2cccc3ccccc32)cc1` [Compound 12, 4-Hydroxyiminomethyl-1,1′-(but-1,4-diyl)-1-pyridinium-1′-quinolinium dibromide], the “POX-HssAChE Reactivation (% ± SD)” value in experiment [1] was 0.6 ± 0.5% and 2.0 ± 0.1%. The “DFP-HssAChE Reactivation (% ± SD)” value in experiment [2] was 0.2 ± 1.0% and 0.8 ± 0.2%. In addition, the “MePOX-HssAChE Reactivation (% ± SD)” value in experiment [3] is 2.2 ± 0.5% and 8.6 ± 0.4%.
In the case of `CC(C)(C)c1cc[n+](CCCC[n+]2ccc(C=NO)cc2)cc1.[Br-].[Br-]` [Compound 15, 4-Hydroxyiminomethyl-4′-(1,1-dimethylethyl)-1,1′-(but-1,4-diyl)-bispyridinium dibromide], the “DFP-HssAChE Reactivation (% ± SD)” value in experiment [2] is 1.7 ± 0.5% and 0.8 ± 0.3%. For the same molecule, the “MePOX-HssAChE Reactivation (% ± SD)” value in experiment [3] was 4.0 ± 0.5% and 7.6 ± 0.5%.
For the molecule `ON=Cc1cc[n+](CCCC[n+]2ccc(/C=N/O)cc2)cc1` [Compound 7, reference compound], the “DFP-HssAChE Reactivation (% ± SD)” value in experiment [2] was 1.4 ± 0.5% and 1.4 ± 0.2%. Further, the “MePOX-HssAChE Reactivation (% ± SD)” value in experiment [3] was 17.9 ± 0.1% and 21.2 ± 0.4%.
Turning to `NC(=O)c1cc[n+](CCCC[n+]2ccc(/C=N/O)cc2)cc1` [Compound 6, reference compound], in experiment [2], the “DFP-HssAChE Reactivation (% ± SD)” value was 3.8 ± 0.1% and 1.4 ± 0.1%. Besides, in experiment [3], the “MePOX-HssAChE Reactivation (% ± SD)” value is 54.4 ± 0.9% and 29.1 ± 0.4%.
On to `CCOC(=O)c1cc[n+](CCCC[n+]2ccc(C=NO)cc2)cc1` [Compound 21, 4-Ethylcarboxy-4′-hydroxyiminomethyl-1,1′-(but-1,4-diyl)-bispyridinium dibromide], for which the “POX-HssAChE Reactivation (% ± SD)” value in experiment [1] is 7.1 ± 0.7% and 4.0 ± 0.6%. Moreover, the “DFP-HssAChE Reactivation (% ± SD)” value in experiment [2] is 0.8 ± 0.3% and 1.1 ± 0.2%. The “MePOX-HssAChE Reactivation (% ± SD)” value in experiment [3] was 3.8 ± 0.4% and 7.2 ± 0.2%.
In the case of `CC(=O)c1cc[n+](CCCC[n+]2ccc(C=NO)cc2)cc1.[Br-].[Br-]` [Compound 19, 4-Hydroxyiminomethyl-4′-methylcarbonyl-1,1′-(but-1,4-diyl)-bispyridinium dibromide], the “POX-HssAChE Reactivation (% ± SD)” value in experiment [1] was 11.9 ± 1.0% and 3.9 ± 0.3%. Moreover, in experiment [2], the “DFP-HssAChE Reactivation (% ± SD)” value was 1.5 ± 0.3% and 1.0 ± 0.2%. In addition, in experiment [3], the “MePOX-HssAChE Reactivation (% ± SD)” value is 5.2 ± 0.4% and 7.5 ± 0.1%.
In the case of `ON=Cc1cc[n+](CCC[n+]2ccc(/C=N/O)cc2)cc1` [Compound 4, trimedoxime, reference compound], the “DFP-HssAChE Reactivation (% ± SD)” value in experiment [2] was 10.0 ± 0.5% and 2.7 ± 0.3%. Moreover, the “MePOX-HssAChE Reactivation (% ± SD)” value in experiment [3] was 51.4 ± 0.9% and 59.5 ± 0.7%.
In the case of `ON=Cc1cc[n+](CCCC[n+]2ccc(Cc3ccccc3)cc2)cc1.[Br-].[Br-]` [Compound 17, 4-Hydroxyiminomethyl-4′-phenylmethyl-1,1′-(but-1,4-diyl)-bispyridinium dibromide], in experiment [1], the “POX-HssAChE Reactivation (% ± SD)” value was 1.2 ± 0.1% and 4.7 ± 0.3%. Also, in experiment [2], the “DFP-HssAChE Reactivation (% ± SD)” value was 0.0 ± 0.5% and 0.8 ± 0.2%. Further, the “MePOX-HssAChE Reactivation (% ± SD)” value in experiment [3] is 0.0 ± 0.1% and 3.8 ± 0.4%.
`ON=Cc1cc[n+](CCCC[n+]2ccc3ccccc3c2)cc1` [Compound 13, 4-Hydroxyiminomethyl-1,1′-(but-1,4-diyl)-1-pyridinium-1′-isoquinolinium dibromide]: the “POX-HssAChE Reactivation (% ± SD)” value in experiment [1] was 9.1 ± 0.3% and 8.7 ± 0.3%. Further, the “DFP-HssAChE Reactivation (% ± SD)” value in experiment [2] is 0.7 ± 0.2% and 1.1 ± 0.2%. The “MePOX-HssAChE Reactivation (% ± SD)” value in experiment [3] was 8.2 ± 0.8% and 16.9 ± 0.4%.
Take `ON=Cc1cc[n+](CCCC[n+]2ccc(-c3ccccc3)cc2)cc1.[Br-].[Br-]` [Compound 16, 4-Hydroxyiminomethyl-4′-phenyl-1,1′-(but-1,4-diyl)-bispyridinium dibromide]: in experiment [1], the “POX-HssAChE Reactivation (% ± SD)” value was 6.9 ± 0.4% and 8.9 ± 0.5%. The “DFP-HssAChE Reactivation (% ± SD)” value in experiment [2] was 0.7 ± 0.2% and 1.0 ± 0.3%. Also, in experiment [3], the “MePOX-HssAChE Reactivation (% ± SD)” value was 1.7 ± 0.3% and 6.2 ± 0.4%.
For `ON=Cc1cc[n+](CCCC[n+]2ccccc2)cc1.[Br-].[Br-]` [Compound 10, 4-Hydroxyiminomethyl-1,1′-(but-1,4-diyl)-bispyridinium dibromide], the “DFP-HssAChE Reactivation (% ± SD)” value in experiment [2] was 2.4 ± 0.5% and 0.4 ± 0.3%. Besides, in experiment [3], the “MePOX-HssAChE Reactivation (% ± SD)” value was 14.3 ± 0.8% and 13.2 ± 0.1%.
Consider `Cc1cc[n+](CCCC[n+]2ccc(C=NO)cc2)cc1.[Br-].[Br-]` [Compound 14, 4-Hydroxyiminomethyl-4′-methyl-1,1′-(but-1,4-diyl)-bispyridinium dibromide], for which the “DFP-HssAChE Reactivation (% ± SD)” value in experiment [2] is 1.1 ± 0.4% and 0.8 ± 0.3%. Besides, the “MePOX-HssAChE Reactivation (% ± SD)” value in experiment [3] is 9.5 ± 0.5% and 9.4 ± 0.2%.
Regarding `OCc1cc[n+](CCCC[n+]2ccc(C=NO)cc2)cc1.[Br-].[Br-]` [Compound 18, 4-Hydroxyiminomethyl-4′-hydroxymethyl-1,1′-(but-1,4-diyl)-bispyridinium dibromide], the “DFP-HssAChE Reactivation (% ± SD)” value in experiment [2] is 3.8 ± 1.0% and 1.4 ± 0.4%. In addition, the “MePOX-HssAChE Reactivation (% ± SD)” value in experiment [3] was 6.7 ± 0.3% and 8.1 ± 0.3%.
In the case of `ON=Cc1cc[n+](C/C=C/C[n+]2ccc(/C=N/O)cc2)cc1` [Compound 8, reference compound], in experiment [2], the “DFP-HssAChE Reactivation (% ± SD)” value was 1.1 ± 0.3% and 1.5 ±0.2%. In experiment [3], the “MePOX-HssAChE Reactivation (% ± SD)” value is 19.2 ± 0.9% and 22.8 ± 0.2%.
Turning to `O=C(O)c1cc[n+](CCCC[n+]2ccc(C=NO)cc2)cc1.[Br-].[Br-]` [Compound 20, 4-Carboxy-4′-hydroxyiminomethyl-1,1′-(but-1,4-diyl)-bispyridinium dibromide], the “DFP-HssAChE Reactivation (% ± SD)” value in experiment [2] was 1.1 ± 0.5% and 0.4 ± 0.1%. For the same molecule, the “MePOX-HssAChE Reactivation (% ± SD)” value in experiment [3] was 9.5 ± 0.3% and 8.8 ± 0.4%.
As for `NC(=O)c1cc[n+](CCCC[n+]2ccc(C=NO)cc2)cc1C(N)=O.[Br-].[Br-]` [Compound 24, 3,4-Dicarbamoyl-4′-hydroxyiminomethyl-1,1′-(but-1,4-diyl)-bispyridinium dibromide], the “POX-HssAChE Reactivation (% ± SD)” value in experiment [1] is 2.0 ± 0.4% and 2.2 ± 0.8%. In addition, the “DFP-HssAChE Reactivation (% ± SD)” value in experiment [2] is 0.7 ± 0.4% and 0.7 ± 1.0%. Besides, the “MePOX-HssAChE Reactivation (% ± SD)” value in experiment [3] is 4.2 ± 0.5% and 10.1 ± 0.2%.
For the molecule `ON=Cc1cc[n+](C[n+]2ccc(C=NO)cc2)cc1` [Compound 5, methoxime, reference compound], the “DFP-HssAChE Reactivation (% ± SD)” value in experiment [2] is 2.4 ± 0.1% and 0.6 ± 0.3%. Also, the “MePOX-HssAChE Reactivation (% ± SD)” value in experiment [3] was 14.2 ± 0.1% and 14.3 ± 0.2%.

(Values after PMC6225275 (Molecules : A Journal of Synthetic Chemistry and Natural …, 2018).)
